Results taken from patent US6376497B1, “Antifungal azole derivatives having a fluorinated vinyl group and process for preparing same” (Korea Research Institute of Chemical Technology, priority 1999, dated 2002).

Legend:
Assay in all cases: In vitro antifungal activity, microbroth dilution MIC
Assay type in all cases: cell-based
[1] = system: Aspergillus furnigatus B. 19119; conditions: for Minimal inhibitory concentration(MIC), A furnigatus B. 19119: RPMI-1640, 35° C., no growth observed
Summary of the method: (§1)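 Broth microdilution adapted from NCCLS M27, in RPMI-1640 with 0.165 M MOPS, pH 7.0. Yeast or mould inoculum at 2×10^3 CFU/ml was mixed 1:1 with DMSO-derived compound solutions (200 to 0.10 μg/ml before mixing) and incubated at 35 °C for 4 to 48 h. MIC was the concentration showing no growth.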

[2] = system: Aspergillus niger A. 16404; conditions: for Minimal inhibitory concentration(MIC), A. niger A. 16404: RPMI-1640, 35° C., no growth observed
Summary of the method: as §1

[3] = system: Candida albicans A. 10231; conditions: 4 to 48 hours; for Minimal inhibitory concentration(MIC), C. albicans A. 10231: RPMI-1640, 35° C., no growth observed
Summary of the method: as §1

Candida albicans C1-2 = conditions: 4 to 48 hours; for Minimal inhibitory concentration(MIC), C. albicans C1-2: RPMI-1640, 35° C., no growth observed
Summary of the method: as §1

[4] = system: Candida albicans IFO. 1385; conditions: 4 to 48 hours; for Minimal inhibitory concentration(MIC), C. albicans IFO. 1385: RPMI-1640, 35° C., no growth observed
Summary of the method: as §1

Candida krusei K. 11655 = conditions: 4 to 48 hours; for Minimal inhibitory concentration(MIC), C. krusei K. 11655: RPMI-1640, 35° C., no growth observed
Summary of the method: as §1

[5] = system: Candida parapsitosis A. 7330; conditions: 4 to 48 hours; for Minimal inhibitory concentration(MIC), C. parapsitosis A. 7330: RPMI-1640, 35° C., no growth observed
Summary of the method: as §1

[6] = system: Candida pseudotropicalis K. 11658; conditions: 4 to 48 hours; for Minimal inhibitory concentration(MIC), C. pseudotropicalis K. 11658: RPMI-1640, 35° C., no growth observed
Summary of the method: as §1

[7] = system: Candida tropicalis A. 13803; conditions: 4 to 48 hours; for Minimal inhibitory concentration(MIC), C. tropicalis A. 13803: RPMI-1640, 35° C., no growth observed
Summary of the method: as §1

[8] = system: Cryptococcus neoformans A. 34144; conditions: for Minimal inhibitory concentration(MIC), Cry. neoformans A. 34144: RPMI-1640, 35° C., no growth observed
Summary of the method: as §1

[9] = system: Cryptococcus neoformans B. 42419; conditions: 4 to 48 hours; for Minimal inhibitory concentration(MIC), Cry. neoformans B. 42419: RPMI-1640, 35° C., no growth observed
Summary of the method: as §1

[10] = system: Cryptococcus neoformans IFM. 40092; conditions: for Minimal inhibitory concentration(MIC), Cry. neoformans IFM. 40092: RPMI-1640, 35° C., no growth observed
Summary of the method: as §1

[11] = system: Torulopsis glabrata B. 16205; conditions: 4 to 48 hours; for Minimal inhibitory concentration(MIC), T. glabrata B. 16205: RPMI-1640, 35° C., no growth observed
Summary of the method: as §1

[12] = system: Trichophyton mentagrophytes A. 9129; conditions: for Minimal inhibitory concentration(MIC), T. mentagrophytes A. 9129: RPMI-1640, 35° C., no growth observed
Summary of the method: as §1

[13] = system: Trichophyton mentagrophytes B. 32663; conditions: for Minimal inhibitory concentration(MIC), T. mentagrophytes B. 32663: RPMI-1640, 35° C., no growth observed
Summary of the method: as §1

Row | Minimal inhibitory concentration(MIC), C. albicans A. 10231 [3] | Minimal inhibitory concentration(MIC), C. albicans C1-2 (Candida albicans C1-2) | Minimal inhibitory concentration(MIC), C. albicans IFO. 1385 [4] | Minimal inhibitory concentration(MIC), C. krusei K. 11655 (Candida krusei K. 11655) | Minimal inhibitory concentration(MIC), C. parapsitosis A. 7330 [5] | Minimal inhibitory concentration(MIC), C. pseudotropicalis K. 11658 [6] | Minimal inhibitory concentration(MIC), C. tropicalis A. 13803 [7] | Minimal inhibitory concentration(MIC), Cry. neoformans B. 42419 [9] | Minimal inhibitory concentration(MIC), T. glabrata B. 16205 [11] | Minimal inhibitory concentration(MIC), A furnigatus B. 19119 ([1]; 4 to 48 hours) | Minimal inhibitory concentration(MIC), A. niger A. 16404 ([2]; 4 to 48 hours) | Minimal inhibitory concentration(MIC), Cry. neoformans A. 34144 ([8]; 4 to 48 hours) | Minimal inhibitory concentration(MIC), Cry. neoformans IFM. 40092 ([10]; 4 to 48 hours) | Minimal inhibitory concentration(MIC), T. mentagrophytes A. 9129 ([12]; 4 to 48 hours) | Minimal inhibitory concentration(MIC), T. mentagrophytes B. 32663 ([13]; 4 to 48 hours) | SMILES | other results
1 | >100 µg/mL | >100 µg/mL | 0.39 µg/mL | 0.39 µg/mL | 0.78 µg/mL | 0.39 µg/mL | >100 µg/mL | 0.39 µg/mL | 50.0 µg/mL | – | – | – | – | – | – | FC(=C(c1ccc(Cl)cc1)C(F)(F)F)N1CCN(c2ccc(OCC3COC(Cn4ccnc4)(c4ccc(F)cc4F)O3)cc2)CC1 (mixture of isomers) [Ex. 149] | Minimal inhibitory concentration(MIC), A furnigatus B. 19119 [1]: 6.25 µg/mL; Minimal inhibitory concentration(MIC), A. niger A. 16404 [2]: 100 µg/mL; Minimal inhibitory concentration(MIC), Cry. neoformans A. 34144 [8]: 0.78 µg/mL; Minimal inhibitory concentration(MIC), Cry. neoformans IFM. 40092 [10]: ≦0.10 μg/ml; Minimal inhibitory concentration(MIC), T. mentagrophytes A. 9129 [12]: 3.13 µg/mL; Minimal inhibitory concentration(MIC), T. mentagrophytes B. 32663 [13]: ≦0.10 μg/ml
2 | 100 µg/mL | 50.0 µg/mL | 3.13 µg/mL | >100 µg/mL | >100 µg/mL | >100 µg/mL | >100 µg/mL | 3.13 µg/mL | 100 µg/mL | >100 µg/mL | >100 µg/mL | 1.56 µg/mL | 0.39 µg/mL | 6.25 µg/mL | 3.13 µg/mL | Cc1ccc(C(=C(F)Oc2ccc(OCC3COC(Cn4ccnc4)(c4ccc(F)cc4F)O3)cc2)C(F)(F)F)cc1C (mixture of isomers) [Ex. 110] | –
3 | 100 µg/mL | 100 µg/mL | 12.5 µg/mL | >100 µg/mL | >100 µg/mL | >100 µg/mL | >100 µg/mL | 6.25 µg/mL | 100 µg/mL | >100 µg/mL | >100 µg/mL | 12.5 µg/mL | 0.78 µg/mL | 50.0 µg/mL | 50.0 µg/mL | COc1cccc(C=C(F)Oc2ccc(OCC3COC(Cn4ccnc4)(c4ccc(Cl)cc4Cl)O3)cc2)c1 (mixture of isomers) [Ex. 90] | –
4 | – | – | – | – | – | – | – | – | – | – | – | – | – | – | – | Cc1cccc(C=C(F)OCC2COC(Cn3cncn3)(c3ccc(Cl)cc3Cl)O2)c1 (mixture of isomers) [Ex. 70] | Minimal inhibitory concentration (MIC) ([1]; A furnigatus B. 19119, RPMI-1640, 35° C., 4 to 48 hours): 50.0 µg/mL; Minimal inhibitory concentration (MIC) ([2]; A. niger A. 16404, RPMI-1640, 35° C., 4 to 48 hours): 100 µg/mL; Minimal inhibitory concentration (MIC) ([3]; C. albicans A. 10231, RPMI-1640, 35° C.): 25.0 µg/mL; Minimal inhibitory concentration (MIC) (Candida albicans C1-2; C. albicans C1-2, RPMI-1640, 35° C.): 25.0 µg/mL; Minimal inhibitory concentration (MIC) ([4]; C. albicans IFO. 1385, RPMI-1640, 35° C.): 6.25 µg/mL; Minimal inhibitory concentration (MIC) (Candida krusei K. 11655; C. krusei K. 11655, RPMI-1640, 35° C.): 100 µg/mL; Minimal inhibitory concentration (MIC) ([5]; C. parapsitosis A. 7330, RPMI-1640, 35° C.): >100 µg/mL; Minimal inhibitory concentration (MIC) ([6]; C. pseudotropicalis K. 11658, RPMI-1640, 35° C.): 50.0 µg/mL; Minimal inhibitory concentration (MIC) ([7]; C. tropicalis A. 13803, RPMI-1640, 35° C.): 100 µg/mL; Minimal inhibitory concentration (MIC) ([8]; Cry. neoformans A. 34144, RPMI-1640, 35° C., 4 to 48 hours): 3.13 µg/mL; Minimal inhibitory concentration (MIC) ([9]; Cry. neoformans B. 42419, RPMI-1640, 35° C.): 3.13 µg/mL; Minimal inhibitory concentration (MIC) ([10]; Cry. neoformans IFM. 40092, RPMI-1640, 35° C., 4 to 48 hours): 0.78 µg/mL; Minimal inhibitory concentration (MIC) ([11]; T. glabrata B. 16205, RPMI-1640, 35° C.): 25.0 µg/mL; Minimal inhibitory concentration (MIC) ([12]; T. mentagrophytes A. 9129, RPMI-1640, 35° C., 4 to 48 hours): 3.13 µg/mL; Minimal inhibitory concentration (MIC) ([13]; T. mentagrophytes B. 32663, RPMI-1640, 35° C., 4 to 48 hours): 3.13 µg/mL
